Source: patent publication US11618758B2, “Bicyclic and tricyclic pyrimidine tyrosine kinase inhibitors with antitubulin activity and methods of treating a patient” (Duquesne University of the Holy Spirit, priority 2011, dated 2023)

Columns and labels:
[1] = target: T1, epidermal growth factor receptor (EGFR) (Homo sapiens, UniProt P00533); conditions: does not inhibit EGFR even at these concentrations; cited from earlier work
[2] = target: vascular endothelial growth factor receptor (VEGFR2, Flk-1) (Homo sapiens, UniProt P35968); assay: Kinase inhibition VEGFR2; assay type: biochemical; conditions: comparable to sunitinib
Sequence of vascular endothelial growth factor receptor (VEGFR2, Flk-1) (P35968 20-1356): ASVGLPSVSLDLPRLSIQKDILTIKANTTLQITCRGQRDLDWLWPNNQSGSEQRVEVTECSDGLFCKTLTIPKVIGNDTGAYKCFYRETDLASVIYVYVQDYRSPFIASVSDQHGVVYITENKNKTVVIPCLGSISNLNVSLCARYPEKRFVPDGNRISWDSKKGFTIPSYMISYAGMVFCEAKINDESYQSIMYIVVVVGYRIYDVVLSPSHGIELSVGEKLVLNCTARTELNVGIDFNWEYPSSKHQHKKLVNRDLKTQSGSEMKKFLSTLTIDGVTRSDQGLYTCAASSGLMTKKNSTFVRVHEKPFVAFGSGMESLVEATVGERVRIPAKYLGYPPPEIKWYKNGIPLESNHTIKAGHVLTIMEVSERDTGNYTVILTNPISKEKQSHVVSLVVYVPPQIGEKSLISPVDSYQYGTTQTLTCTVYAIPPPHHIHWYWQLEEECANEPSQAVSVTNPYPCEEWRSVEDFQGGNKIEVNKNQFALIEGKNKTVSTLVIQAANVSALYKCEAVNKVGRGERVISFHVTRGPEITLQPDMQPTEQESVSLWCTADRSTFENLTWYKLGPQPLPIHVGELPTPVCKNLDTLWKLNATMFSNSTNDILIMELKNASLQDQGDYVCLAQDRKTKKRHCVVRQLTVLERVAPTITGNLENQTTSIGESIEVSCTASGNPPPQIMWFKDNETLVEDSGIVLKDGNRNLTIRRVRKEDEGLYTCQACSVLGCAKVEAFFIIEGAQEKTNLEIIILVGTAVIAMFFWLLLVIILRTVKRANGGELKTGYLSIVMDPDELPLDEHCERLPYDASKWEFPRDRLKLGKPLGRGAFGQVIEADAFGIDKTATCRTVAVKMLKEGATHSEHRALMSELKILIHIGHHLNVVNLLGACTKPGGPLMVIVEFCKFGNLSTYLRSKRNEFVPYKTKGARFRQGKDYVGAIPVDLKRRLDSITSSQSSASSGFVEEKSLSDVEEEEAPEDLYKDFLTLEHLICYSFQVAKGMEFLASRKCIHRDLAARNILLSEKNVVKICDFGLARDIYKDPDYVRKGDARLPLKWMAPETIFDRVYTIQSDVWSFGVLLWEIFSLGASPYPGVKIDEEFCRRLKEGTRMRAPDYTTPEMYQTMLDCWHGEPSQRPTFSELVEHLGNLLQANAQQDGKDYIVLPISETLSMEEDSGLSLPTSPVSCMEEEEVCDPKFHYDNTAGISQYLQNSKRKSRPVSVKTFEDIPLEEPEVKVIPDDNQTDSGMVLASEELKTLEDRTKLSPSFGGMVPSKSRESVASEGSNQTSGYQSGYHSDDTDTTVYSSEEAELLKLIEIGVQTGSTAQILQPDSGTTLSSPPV

[3] = target: T1, epidermal growth factor receptor (EGFR); assay: Kinase inhibition EGFR; assay type: biochemical; conditions: comparable to sunitinib
[4] = target: platelet derived growth factor receptor-β (PDGFR-β) (Homo sapiens, UniProt P09619); assay: Kinase inhibition PDGFRβ; assay type: biochemical; conditions: comparable to sunitinib
Sequence of platelet derived growth factor receptor-β (PDGFR-β) (P09619 33-1106, species assumed): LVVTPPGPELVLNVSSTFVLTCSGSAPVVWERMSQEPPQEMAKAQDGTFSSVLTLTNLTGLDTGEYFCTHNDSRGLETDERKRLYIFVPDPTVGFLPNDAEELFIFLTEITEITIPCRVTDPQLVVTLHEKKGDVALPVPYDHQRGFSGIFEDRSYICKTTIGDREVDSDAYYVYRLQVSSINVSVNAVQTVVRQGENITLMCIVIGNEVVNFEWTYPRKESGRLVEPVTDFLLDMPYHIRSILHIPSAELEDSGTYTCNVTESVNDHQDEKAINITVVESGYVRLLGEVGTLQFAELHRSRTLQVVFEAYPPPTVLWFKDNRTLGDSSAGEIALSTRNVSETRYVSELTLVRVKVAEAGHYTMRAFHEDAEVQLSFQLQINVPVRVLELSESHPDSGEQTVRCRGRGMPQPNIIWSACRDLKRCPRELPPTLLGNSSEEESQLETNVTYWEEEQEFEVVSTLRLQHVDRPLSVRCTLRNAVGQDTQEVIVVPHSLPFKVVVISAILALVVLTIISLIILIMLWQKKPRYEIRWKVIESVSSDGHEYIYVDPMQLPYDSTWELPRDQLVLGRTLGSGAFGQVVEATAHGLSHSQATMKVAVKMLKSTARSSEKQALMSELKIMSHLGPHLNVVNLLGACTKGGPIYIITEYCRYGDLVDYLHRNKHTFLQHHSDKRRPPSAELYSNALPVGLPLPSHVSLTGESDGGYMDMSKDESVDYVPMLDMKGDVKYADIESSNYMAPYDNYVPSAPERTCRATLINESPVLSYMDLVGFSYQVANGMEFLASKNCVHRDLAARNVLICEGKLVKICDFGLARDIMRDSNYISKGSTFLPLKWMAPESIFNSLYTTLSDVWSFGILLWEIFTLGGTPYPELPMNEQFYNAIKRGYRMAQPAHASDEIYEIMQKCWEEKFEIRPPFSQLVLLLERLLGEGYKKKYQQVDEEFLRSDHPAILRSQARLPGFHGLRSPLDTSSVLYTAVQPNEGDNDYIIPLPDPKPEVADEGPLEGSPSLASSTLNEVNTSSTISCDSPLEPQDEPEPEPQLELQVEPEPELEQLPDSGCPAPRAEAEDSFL

T1 sequence (P00533 25-1210, species assumed): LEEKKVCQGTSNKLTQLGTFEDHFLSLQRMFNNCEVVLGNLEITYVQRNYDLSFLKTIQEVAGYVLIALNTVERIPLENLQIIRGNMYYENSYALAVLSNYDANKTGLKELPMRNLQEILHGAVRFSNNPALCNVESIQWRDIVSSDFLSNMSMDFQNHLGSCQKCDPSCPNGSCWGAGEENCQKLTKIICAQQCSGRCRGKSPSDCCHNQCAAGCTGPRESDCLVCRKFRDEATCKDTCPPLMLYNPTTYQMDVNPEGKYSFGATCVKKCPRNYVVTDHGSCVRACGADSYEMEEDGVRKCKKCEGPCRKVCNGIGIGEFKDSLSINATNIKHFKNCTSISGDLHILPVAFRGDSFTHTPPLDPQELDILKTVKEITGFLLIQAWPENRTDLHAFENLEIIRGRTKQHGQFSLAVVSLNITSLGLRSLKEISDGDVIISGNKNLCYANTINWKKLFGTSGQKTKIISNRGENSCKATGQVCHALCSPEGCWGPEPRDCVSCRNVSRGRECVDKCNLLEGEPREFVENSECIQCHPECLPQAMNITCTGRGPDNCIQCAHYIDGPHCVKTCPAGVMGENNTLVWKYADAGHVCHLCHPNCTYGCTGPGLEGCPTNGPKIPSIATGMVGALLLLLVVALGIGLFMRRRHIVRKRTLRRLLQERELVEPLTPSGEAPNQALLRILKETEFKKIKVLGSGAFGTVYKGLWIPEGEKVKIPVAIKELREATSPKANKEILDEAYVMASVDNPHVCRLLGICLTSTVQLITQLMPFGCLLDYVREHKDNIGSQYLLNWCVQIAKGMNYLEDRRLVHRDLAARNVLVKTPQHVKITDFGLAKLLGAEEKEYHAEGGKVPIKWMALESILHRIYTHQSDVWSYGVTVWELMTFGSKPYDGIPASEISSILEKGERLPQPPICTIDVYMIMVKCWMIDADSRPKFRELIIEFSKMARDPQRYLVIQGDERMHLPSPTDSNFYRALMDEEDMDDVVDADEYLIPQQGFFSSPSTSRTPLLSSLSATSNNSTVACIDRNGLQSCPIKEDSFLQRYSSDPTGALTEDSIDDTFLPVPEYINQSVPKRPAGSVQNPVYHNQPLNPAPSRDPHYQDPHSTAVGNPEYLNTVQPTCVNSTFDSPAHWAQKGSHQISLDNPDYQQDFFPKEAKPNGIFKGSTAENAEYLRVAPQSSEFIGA

| Flk-1 (VEGR2) kinase inhibition (in words, FIG. 16) [2] | EGFR kinase inhibition (in words, FIG. 16) [3] | PDGFR kinase inhibition (in words, FIG. 16) [4] | Compound | concentration at which EGFR is not inhibited [1] |
| --- | --- | --- | --- | --- |
| – | – | – | CN(C)c1ccc(/C=C2\C(=O)Nc3ccccc32)cc1 [DMBI] | greater than 100 μM |
| potent inhibitors | potent inhibitors | potent inhibitors | COc1ccc2c(c1)CCCN2c1nc(C)nc2c1[nH]c1ccccc12 [Composition 106] | – |
